Measurements from patent US20230074545A1, “TREATMENT OF CANCER WITH CDK12/13 INHIBITORS” (Kinnate Biopharma Inc., priority 2019, published 2023).

What was measured:
Experiment in all cases: Radiometric kinase panel
Assay type in all cases: biochemical
TLK2 = molecular target: T1, TLK2 (Homo sapiens, UniProt Q86UE8)
T1 construct: either as full-length or enzymatically active fragments; purchased ProQinase GmbH (Reaction Biology)
In short: (§1)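 Activity was measured radiometrically from [gamma-33P]-ATP incorporation into substrate. The kinases were recombinant human GST- or His-tagged proteins, full-length or active fragments, expressed in Sf9 or E. coli. Compound in 10% DMSO was added before the enzyme/substrate mix, which started the reaction.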

MATK = molecular target: T2, MATK (Homo sapiens, UniProt P42679)
T2 construct: purchased ProQinase GmbH (Reaction Biology)
In short: as §1

BRSK1 = molecular target: T3, BRSK1 (Homo sapiens, UniProt Q8TDC3)
T3 construct: either as full-length or enzymatically active fragments; purchased ProQinase GmbH (Reaction Biology)
In short: as §1

PKCiota = molecular target: T4, PKCiota (Homo sapiens, UniProt P41743)
T4 construct: either as full-length or enzymatically active fragments; purchased ProQinase GmbH (Reaction Biology)
In short: as §1

CAMK2D = molecular target: T5, CAMK2D (Homo sapiens, UniProt Q13557)
T5 construct: purchased ProQinase GmbH (Reaction Biology)
In short: as §1

PKCdelta = molecular target: T6, PKCdelta (Homo sapiens, UniProt Q05655)
T6 construct: purchased ProQinase GmbH (Reaction Biology)
In short: as §1

MAP3K11 = molecular target: T7, MAP3K11 (Homo sapiens, UniProt Q16584)
T7 construct: either as full-length or enzymatically active fragments; purchased ProQinase GmbH (Reaction Biology)
In short: as §1

NEK2 = molecular target: T8, NEK2 (Homo sapiens, UniProt P51955)
T8 construct: either as full-length or enzymatically active fragments; purchased ProQinase GmbH (Reaction Biology)
T8 sequence (P51955 whole entry, the tested form may be a part): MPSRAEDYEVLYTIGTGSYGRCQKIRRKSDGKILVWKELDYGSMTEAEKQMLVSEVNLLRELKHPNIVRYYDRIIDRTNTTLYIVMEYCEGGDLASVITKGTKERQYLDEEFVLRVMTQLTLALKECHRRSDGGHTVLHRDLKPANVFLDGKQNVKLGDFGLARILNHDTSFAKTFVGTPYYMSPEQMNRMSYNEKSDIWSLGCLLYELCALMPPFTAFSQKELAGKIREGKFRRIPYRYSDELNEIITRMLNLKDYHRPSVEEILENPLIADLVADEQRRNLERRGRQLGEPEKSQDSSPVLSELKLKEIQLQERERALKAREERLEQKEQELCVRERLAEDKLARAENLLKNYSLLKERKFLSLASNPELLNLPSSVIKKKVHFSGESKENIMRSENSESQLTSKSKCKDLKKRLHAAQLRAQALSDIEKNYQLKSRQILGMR
In short: as §1

TBK1 = molecular target: T9, TBK1 (Homo sapiens, UniProt Q9UHD2)
T9 construct: either as full-length or enzymatically active fragments; purchased ProQinase GmbH (Reaction Biology)
In short: as §1

INSR = molecular target: T10, INSR (Homo sapiens, UniProt P06213)
T10 construct: either as full-length or enzymatically active fragments; purchased ProQinase GmbH (Reaction Biology); host or cells: Sf9 insect cells or E. coli (not specified per kinase)
In short: as §1

ROCK1 = molecular target: T11, ROCK1 (Homo sapiens, UniProt Q13464)
T11 construct: either as full-length or enzymatically active fragments; purchased ProQinase GmbH (Reaction Biology)
In short: as §1

WNK1 = molecular target: T12, WNK1 (Homo sapiens, UniProt Q9H4A3)
T12 construct: either as full-length or enzymatically active fragments; purchased ProQinase GmbH (Reaction Biology)
In short: as §1

EPHB3 = molecular target: T13, EPHB3 (Homo sapiens, UniProt P54753)
T13 construct: either as full-length or enzymatically active fragments; purchased ProQinase GmbH (Reaction Biology)
In short: as §1

CAMK2B = molecular target: T14, CAMK2B (Homo sapiens, UniProt Q13554)
T14 construct: either as full-length or enzymatically active fragments; purchased ProQinase GmbH (Reaction Biology)
T14 sequence (Q13554 whole entry, the tested form may be a part): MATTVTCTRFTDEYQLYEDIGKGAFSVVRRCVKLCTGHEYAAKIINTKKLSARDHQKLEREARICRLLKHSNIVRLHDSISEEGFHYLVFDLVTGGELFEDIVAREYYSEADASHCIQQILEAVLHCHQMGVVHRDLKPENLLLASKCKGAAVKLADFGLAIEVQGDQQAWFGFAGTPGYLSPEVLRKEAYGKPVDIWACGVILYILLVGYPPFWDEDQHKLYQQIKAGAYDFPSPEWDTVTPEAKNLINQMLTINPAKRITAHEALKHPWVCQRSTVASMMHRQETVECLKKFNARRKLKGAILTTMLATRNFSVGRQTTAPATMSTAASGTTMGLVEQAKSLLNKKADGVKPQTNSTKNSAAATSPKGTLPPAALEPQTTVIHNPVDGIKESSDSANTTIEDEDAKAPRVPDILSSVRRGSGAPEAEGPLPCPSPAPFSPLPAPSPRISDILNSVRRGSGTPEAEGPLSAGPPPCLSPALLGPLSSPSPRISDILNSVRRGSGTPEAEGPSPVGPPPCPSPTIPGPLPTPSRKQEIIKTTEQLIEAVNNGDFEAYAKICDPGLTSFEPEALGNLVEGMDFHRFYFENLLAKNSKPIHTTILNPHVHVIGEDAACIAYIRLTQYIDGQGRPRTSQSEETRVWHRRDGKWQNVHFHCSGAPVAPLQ
In short: as §1

MINK1 = molecular target: T15, MINK1 (Homo sapiens, UniProt Q8N4C8)
T15 construct: either as full-length or enzymatically active fragments; purchased ProQinase GmbH (Reaction Biology)
In short: as §1

PKCmu = molecular target: T16, PKCmu (Homo sapiens, UniProt Q15139)
T16 construct: either as full-length or enzymatically active fragments; purchased ProQinase GmbH (Reaction Biology)
T16 sequence (Q15139 whole entry, the tested form may be a part): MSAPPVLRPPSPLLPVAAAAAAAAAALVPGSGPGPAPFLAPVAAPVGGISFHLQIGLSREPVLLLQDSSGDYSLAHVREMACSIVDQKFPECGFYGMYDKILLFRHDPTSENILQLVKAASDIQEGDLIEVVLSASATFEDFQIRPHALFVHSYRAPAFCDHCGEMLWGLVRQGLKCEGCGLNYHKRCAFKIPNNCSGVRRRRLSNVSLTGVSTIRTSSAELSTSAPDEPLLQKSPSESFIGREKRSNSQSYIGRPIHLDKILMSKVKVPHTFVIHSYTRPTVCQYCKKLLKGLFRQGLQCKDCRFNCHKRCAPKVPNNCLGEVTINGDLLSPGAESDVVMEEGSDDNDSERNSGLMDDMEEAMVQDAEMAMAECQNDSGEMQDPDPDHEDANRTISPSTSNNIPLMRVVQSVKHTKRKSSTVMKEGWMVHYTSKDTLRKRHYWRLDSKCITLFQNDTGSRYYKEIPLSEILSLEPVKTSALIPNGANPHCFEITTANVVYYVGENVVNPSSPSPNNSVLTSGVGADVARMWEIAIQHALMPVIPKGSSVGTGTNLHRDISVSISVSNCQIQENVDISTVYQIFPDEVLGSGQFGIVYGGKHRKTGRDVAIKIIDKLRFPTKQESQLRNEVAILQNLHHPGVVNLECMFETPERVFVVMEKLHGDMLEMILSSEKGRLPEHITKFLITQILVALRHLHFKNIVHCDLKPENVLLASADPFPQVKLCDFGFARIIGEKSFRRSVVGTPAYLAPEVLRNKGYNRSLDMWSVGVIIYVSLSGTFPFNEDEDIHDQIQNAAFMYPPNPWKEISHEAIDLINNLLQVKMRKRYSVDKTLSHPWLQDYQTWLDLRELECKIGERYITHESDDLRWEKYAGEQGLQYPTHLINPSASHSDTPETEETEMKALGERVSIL
In short: as §1

RET = molecular target: T17, RET (Homo sapiens, UniProt P07949)
T17 construct: either as full-length or enzymatically active fragments; purchased ProQinase GmbH (Reaction Biology)
In short: as §1

p38beta = molecular target: T18, p38beta (Homo sapiens, UniProt Q15759)
T18 construct: either as full-length or enzymatically active fragments; purchased ProQinase GmbH (Reaction Biology); host or cells: Sf9 insect cells or E. coli (not specified per kinase)
In short: as §1

GRK2 = molecular target: T19, GRK2 (Homo sapiens, UniProt P25098)
T19 construct: either as full-length or enzymatically active fragments; purchased ProQinase GmbH (Reaction Biology)
In short: as §1

SIK1 = molecular target: T20, SIK1 (Homo sapiens, UniProt P57059)
T20 construct: either as full-length or enzymatically active fragments; purchased ProQinase GmbH (Reaction Biology)
In short: as §1

SNARK = molecular target: T21, SNARK (Homo sapiens, UniProt Q9H093)
T21 construct: purchased ProQinase GmbH (Reaction Biology)
In short: as §1

MELK = molecular target: T22, MELK (Homo sapiens, UniProt Q14680)
T22 construct: purchased ProQinase GmbH (Reaction Biology); host or cells: Sf9 insect cells or E. coli (not specified per kinase)
T22 sequence (Q14680 whole entry): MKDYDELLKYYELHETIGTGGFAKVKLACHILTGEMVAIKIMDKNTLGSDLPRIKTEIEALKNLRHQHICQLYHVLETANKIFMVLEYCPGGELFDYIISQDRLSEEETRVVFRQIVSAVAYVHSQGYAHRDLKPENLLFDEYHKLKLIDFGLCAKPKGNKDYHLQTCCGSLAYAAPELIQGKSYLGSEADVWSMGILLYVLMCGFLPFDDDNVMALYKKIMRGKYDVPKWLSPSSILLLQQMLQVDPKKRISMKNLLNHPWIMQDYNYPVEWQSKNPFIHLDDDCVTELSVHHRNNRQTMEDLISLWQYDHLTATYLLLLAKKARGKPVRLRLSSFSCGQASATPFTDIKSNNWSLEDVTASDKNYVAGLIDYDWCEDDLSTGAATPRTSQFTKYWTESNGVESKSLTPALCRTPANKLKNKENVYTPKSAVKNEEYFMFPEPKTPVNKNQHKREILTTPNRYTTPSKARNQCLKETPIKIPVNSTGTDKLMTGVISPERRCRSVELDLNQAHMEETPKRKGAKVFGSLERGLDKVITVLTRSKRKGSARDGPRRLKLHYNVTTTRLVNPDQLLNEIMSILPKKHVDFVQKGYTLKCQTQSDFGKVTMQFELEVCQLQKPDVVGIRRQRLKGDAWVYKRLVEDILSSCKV
In short: as §1

PDGFRbeta = molecular target: T23, PDGFRbeta (Homo sapiens, UniProt P09619)
T23 construct: either as full-length or enzymatically active fragments; purchased ProQinase GmbH (Reaction Biology)
In short: as §1

SRC = molecular target: T24, SRC (Homo sapiens, UniProt P12931)
T24 construct: either as full-length or enzymatically active fragments; purchased ProQinase GmbH (Reaction Biology)
In short: as §1

BMX = molecular target: T25, BMX (Homo sapiens, UniProt P51813)
T25 construct: either as full-length or enzymatically active fragments; purchased ProQinase GmbH (Reaction Biology)
In short: as §1

CDK20/CycH = molecular target: T26, CDK20/CycH (Homo sapiens, UniProt Q8IZL9)
T26 construct: purchased ProQinase GmbH (Reaction Biology)
In short: as §1

IRAK4 = molecular target: T27, IRAK4 (Homo sapiens, UniProt Q9NWZ3)
T27 construct: purchased ProQinase GmbH (Reaction Biology)
In short: as §1

CAMK4 = molecular target: T28, CAMK4 (Homo sapiens, UniProt Q16566)
T28 construct: either as full-length or enzymatically active fragments; purchased ProQinase GmbH (Reaction Biology)
T28 sequence (Q16566 whole entry, the tested form may be a part): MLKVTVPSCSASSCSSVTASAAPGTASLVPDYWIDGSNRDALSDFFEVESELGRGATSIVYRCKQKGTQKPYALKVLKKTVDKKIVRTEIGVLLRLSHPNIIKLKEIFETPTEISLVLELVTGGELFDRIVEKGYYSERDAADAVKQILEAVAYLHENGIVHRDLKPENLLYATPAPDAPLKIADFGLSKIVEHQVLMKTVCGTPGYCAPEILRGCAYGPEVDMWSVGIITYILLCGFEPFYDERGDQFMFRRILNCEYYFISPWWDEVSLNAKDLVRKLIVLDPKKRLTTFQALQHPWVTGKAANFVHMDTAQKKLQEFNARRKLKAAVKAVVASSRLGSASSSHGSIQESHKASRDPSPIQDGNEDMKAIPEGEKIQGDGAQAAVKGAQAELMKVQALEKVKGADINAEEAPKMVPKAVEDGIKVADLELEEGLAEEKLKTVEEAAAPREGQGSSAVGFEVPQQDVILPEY
In short: as §1

GRK6 = molecular target: T29, GRK6 (Homo sapiens, UniProt P43250)
T29 construct: purchased ProQinase GmbH (Reaction Biology)
In short: as §1

FAK = molecular target: T30, FAK (Homo sapiens, UniProt Q05397)
T30 construct: either as full-length or enzymatically active fragments; purchased ProQinase GmbH (Reaction Biology); host or cells: Sf9 insect cells or E. coli
T30 sequence (Q05397 whole entry, the tested form may be a part): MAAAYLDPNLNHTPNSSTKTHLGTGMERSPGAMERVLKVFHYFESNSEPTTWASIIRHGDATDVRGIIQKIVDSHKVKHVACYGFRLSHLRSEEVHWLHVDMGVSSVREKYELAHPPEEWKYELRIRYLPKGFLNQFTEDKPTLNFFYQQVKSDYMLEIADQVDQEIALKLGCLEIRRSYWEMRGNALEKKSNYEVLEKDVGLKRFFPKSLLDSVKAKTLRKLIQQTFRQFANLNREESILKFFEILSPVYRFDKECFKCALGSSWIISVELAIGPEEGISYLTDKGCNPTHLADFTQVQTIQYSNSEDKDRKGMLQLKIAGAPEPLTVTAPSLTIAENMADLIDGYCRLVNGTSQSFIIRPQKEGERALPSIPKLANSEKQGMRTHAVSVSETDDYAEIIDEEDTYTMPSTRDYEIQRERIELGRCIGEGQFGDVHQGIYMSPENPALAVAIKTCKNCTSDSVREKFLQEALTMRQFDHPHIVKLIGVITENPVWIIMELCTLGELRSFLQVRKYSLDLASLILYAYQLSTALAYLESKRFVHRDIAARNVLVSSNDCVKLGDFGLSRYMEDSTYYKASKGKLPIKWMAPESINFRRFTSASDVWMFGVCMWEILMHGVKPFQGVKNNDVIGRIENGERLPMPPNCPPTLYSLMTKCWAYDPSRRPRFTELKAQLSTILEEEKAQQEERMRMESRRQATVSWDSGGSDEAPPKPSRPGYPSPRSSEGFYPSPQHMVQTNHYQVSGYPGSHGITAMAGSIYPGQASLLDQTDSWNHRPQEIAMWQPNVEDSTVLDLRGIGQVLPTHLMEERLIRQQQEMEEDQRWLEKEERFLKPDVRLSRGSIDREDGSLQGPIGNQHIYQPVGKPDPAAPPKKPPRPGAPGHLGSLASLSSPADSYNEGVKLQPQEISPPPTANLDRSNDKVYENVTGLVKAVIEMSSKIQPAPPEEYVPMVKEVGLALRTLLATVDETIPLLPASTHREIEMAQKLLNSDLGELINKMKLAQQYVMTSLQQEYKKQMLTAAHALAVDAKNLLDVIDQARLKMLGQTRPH
In short: as §1

GSG2 = molecular target: T31, GSG2 (Homo sapiens, UniProt Q8TF76)
T31 construct: either as full-length or enzymatically active fragments; purchased ProQinase GmbH (Reaction Biology); host or cells: Sf9 insect cells or E. coli
T31 sequence (Q8TF76 whole entry, the tested form may be a part): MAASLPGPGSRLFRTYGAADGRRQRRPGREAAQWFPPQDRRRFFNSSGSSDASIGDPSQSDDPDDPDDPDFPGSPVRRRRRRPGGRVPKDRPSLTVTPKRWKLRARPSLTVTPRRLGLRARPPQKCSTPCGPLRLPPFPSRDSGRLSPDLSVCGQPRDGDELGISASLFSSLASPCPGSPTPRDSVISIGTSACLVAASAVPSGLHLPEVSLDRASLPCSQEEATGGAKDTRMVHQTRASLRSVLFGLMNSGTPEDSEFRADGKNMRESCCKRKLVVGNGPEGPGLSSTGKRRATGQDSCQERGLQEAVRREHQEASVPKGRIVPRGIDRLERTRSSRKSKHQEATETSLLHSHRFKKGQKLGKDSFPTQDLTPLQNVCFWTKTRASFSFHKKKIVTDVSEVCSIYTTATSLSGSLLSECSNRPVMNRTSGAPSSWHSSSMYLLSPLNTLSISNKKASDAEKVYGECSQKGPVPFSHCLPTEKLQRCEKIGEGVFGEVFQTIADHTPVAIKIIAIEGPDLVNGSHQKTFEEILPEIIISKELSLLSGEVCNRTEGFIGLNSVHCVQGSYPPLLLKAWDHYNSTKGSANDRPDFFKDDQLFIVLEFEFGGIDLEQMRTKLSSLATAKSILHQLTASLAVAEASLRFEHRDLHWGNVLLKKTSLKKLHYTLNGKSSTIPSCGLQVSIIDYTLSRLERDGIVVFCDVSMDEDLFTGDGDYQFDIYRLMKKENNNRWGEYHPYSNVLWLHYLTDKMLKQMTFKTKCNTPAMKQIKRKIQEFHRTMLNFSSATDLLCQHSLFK
In short: as §1

C=CC(=O)Nc1ccc(C(=O)N2CC[C@@H](Nc3ncc(C#N)cn3)C2)cc1 [Compound 4, (R)-N-(4-(3-((5-cyanopyrimidin-2-yl)amino)pyrrolidine-1-carbonyl)phenyl)acrylamide]
inhibition at 1 µM (TLK2): -10%
inhibition at 1 µM (MATK): -3%
inhibition at 1 µM (BRSK1): -4%
inhibition at 1 µM (PKCiota): -4%
inhibition at 1 µM (CAMK2D): 0%
inhibition at 1 µM (PKCdelta): -2%
inhibition at 1 µM (MAP3K11): -7%
inhibition at 1 µM (NEK2): -8%
inhibition at 1 µM (TBK1): -4%
inhibition at 1 µM (INSR): 8%
inhibition at 1 µM (ROCK1): 15%
inhibition at 1 µM (WNK1): 17%
inhibition at 1 µM (EPHB3): 5%
inhibition at 1 µM (CAMK2B): -12%
inhibition at 1 µM (MINK1): 16%
inhibition at 1 µM (PKCmu): 3%
inhibition at 1 µM (RET): 5%
inhibition at 1 µM (p38beta): 8%
inhibition at 1 µM (GRK2): 7%
inhibition at 1 µM (SIK1): 7%
inhibition at 1 µM (SNARK): 0%
inhibition at 1 µM (MELK): 1%
inhibition at 1 µM (PDGFRbeta): 6%
inhibition at 1 µM (SRC): -5%
inhibition at 1 µM (BMX): -4%
inhibition at 1 µM (CDK20/CycH): -2%
inhibition at 1 µM (IRAK4): 0%
inhibition at 1 µM (CAMK4): 8%
inhibition at 1 µM (GRK6): 0%
inhibition at 1 µM (FAK): -15%
inhibition at 1 µM (GSG2): 13%
